From patent US9114137B2, “Derivatives of pyrazolophenyl-benzenesulfonamide compounds and use thereof as antitumor agents” (Nerviano Medical Sciences S.R.L., priority 2010, dated 2015)
pIC50: −log10 of the molar value. Where two headings read alike, the source gives them in different places.

Assays:
Format in all cases: cell-based
[1] = system: human melanoma cells Mewo (with wild-type B-Raf); assay: In vitro cell proliferation assay, Mewo; conditions: 72 hours incubation, cell number by ATP monitoring
Protocol: (§1) Exponentially growing human melanoma cells A375 (with a mutated B-RAF) and human melanoma cells Mewo (with wild-type B-Raf) were seeded and incubated at 37° C. in a humidified 5% CO2 atmosphere. After 24 hours, scalar doses of the compound were added to the medium and cells incubated for 72 hours. At the end of treatment, cells were washed and counted. Cell number was determined by a cellular adenosine triphosphate monitoring system. Cell proliferation was compared to control cells and the concentration inhibiting cell growth by 50% was calculated.

[2] = system: human melanoma cells A375 (with a mutated B-RAF); assay: In vitro cell proliferation assay, A375; conditions: A-375
Protocol: as §1

[3] = system: p-MAPK (T202/Y204) in A375 human melanoma cells, having a mutated B-RAF; assay: p-MAPK (T202/Y204) ArrayScan assay; conditions: A-375, 1.5 or 2 hours treatment, cytoplasmatic p-MAPK fluorescence, read-out: Array Scan A375 IC50
Protocol: A375 human melanoma cells, having a mutated B—RAF, were seeded in 384-well poly-lysine coated plates (Matrix) at a density of 1000 cells/well with appropriate medium supplemented with 10% FCS and incubated for 16-24 hours. Cells were treated for 1.5 or 2 hours with increasing doses of compounds (starting dose 10 μM, dilution factor 2.5). At the end of the treatment cells were fixed with p-formaldehyde 3.7% for 15-30 min, then washed twice with D-PBS (80 μl/well) and permeabilized with D-PBS containing 0.1% Triton X-100 and 1% BSA (Sigma-Aldrich) for 15 minutes at room temperature (staining solution). Anti-phospho-MAPK (T202/Y204) monoclonal antibody E10 (Cell Signaling, cat. #9106) diluted 1:100 was added in staining solution and incubated for 1 hour at 37° C. After removal of the primary antibody solution, the anti-mouse Cy™2-conjugated (Green) secondary antibody (Amersham) diluted 1:500 in staining solution containing 2 μg/ml DAPI was added. The plate was incubated for 1 hour at 37° C., washed twice and then red with Cellomics' ArrayScan VTI (4 fields/well, CytoNucTrans algorithm).
The parameter “MEAN_RingAvgIntenCh2,” which measures the mean cytoplasmatic fluorescence intensity associated to p-MAPK staining, is reported as the final result.

[4] = A375 human melanoma cells (mutated B-RAF), 72 hours incubation, cell number by ATP monitoring, read-out: Proliferation A375 IC50

Row | Structure (SMILES) | pIC50 [1] | pIC50 [2, 4] | pIC50 [3] | pIC50 ([2]; Homo sapiens, value quoted in text for the reference compound, no unit or cell line printed, read-out: antiproliferative activity)
1 | Nc1cc(-c2cn(C3CCOCC3)nc2-c2cccc(NS(=O)(=O)c3cc(F)ccc3F)c2F)ccn1 [Compound 14, N-{3-[4-(2-Amino-pyridin-4-yl)-1-(tetrahydro-pyran-4-yl)-1H-pyrazol-3-yl]-2-fluoro-phenyl}-2,5-difluoro-benzenesulfonamide] | < 5.00 | 7.47 | > 7.80 | 
2 | O=S(=O)(Nc1cccc(-c2nn(C3CCC(F)(F)CC3)cc2-c2ccncc2)c1F)c1cc(F)ccc1F [Compound 25, N-{3-[1-(4,4-difluorocyclohexyl)-4-(pyridin-4-yl)-1H-pyrazol-3-yl]-2-fluorophenyl}-2,5-difluorobenzenesulfonamide] | < 5.00 | > 7.80 | > 7.80 | 
3 | CC(C)n1cc(-c2ccncc2)c(-c2cccc(NS(=O)(=O)c3cc(F)ccc3F)c2F)n1 [Compound 9, 2,5-Difluoro-N-[2-fluoro-3-(1-isopropyl-4-pyridin-4-yl-1H-pyrazol-3-yl)-phenyl]-benzenesulfonamide] | < 5.00 | 8.30 | > 7.80 | 
4 | CC(=O)Nc1cc(-c2cn(C3CCOCC3)nc2-c2cccc(NS(=O)(=O)c3cc(F)ccc3F)c2F)ccn1 [Compound 26, N-{4-[3-(3-{[(2,5-difluorophenyl)sulfonyl]amino}-2-fluorophenyl)-1-(tetrahydro-2H-pyran-4-yl)-1H-pyrazol-4-yl]pyridin-2-yl}acetamide] | < 5.00 | 8.15 | > 7.80 | 
5 | O=S(=O)(Nc1cccc(-c2nn(CCF)cc2-c2ccncc2)c1F)c1cc(F)ccc1F [Compound 7, 2,5-Difluoro-N-{2-fluoro-3-[1-(2-fluoro-ethyl)-4-pyridin-4-yl-1H-pyrazol-3-yl]-phenyl}-benzenesulfonamide] | < 5.00 | > 7.80 | > 7.80 | 
6 | CCn1cc(-c2ccncc2)c(-c2cccc(NS(=O)(=O)c3cc(F)ccc3F)c2F)n1 [Ref. cpd, N-{3-[1-ethyl-4-(pyridin-4-yl)-1H-pyrazol-3-yl]-2-fluorophenyl}-2,5-difluorobenzenesulfonamide, reference compound] | < 5.00 | 7.32 | > 7.80 | 7.08
7 | CC(C)n1cc(-c2ccnc(N)c2)c(-c2cccc(NS(=O)(=O)c3cc(F)ccc3F)c2F)n1 [Compound 12, N-{3-[4-(2-Amino-pyridin-4-yl)-1-isopropyl-1H-pyrazol-3-yl]-2-fluoro-phenyl}-2,5-difluoro-benzenesulfonamide] | < 5.00 | 7.77 | > 7.80 | 
8 | Nc1cc(-c2cn(C3CCCC3)nc2-c2cccc(NS(=O)(=O)c3cc(F)ccc3F)c2F)ccn1 [Compound 17, N-{3-[4-(2-Amino-pyridin-4-yl)-1-cyclopentyl-1H-pyrazol-3-yl]-2-fluoro-phenyl}-2,5-difluoro-benzenesulfonamide] | < 5.00 | 7.55 | > 7.80 | 
9 | Nc1nccc(-c2cn(CCF)nc2-c2cccc(NS(=O)(=O)c3cc(F)ccc3F)c2F)n1 [Compound 11, N-{3-[4-(2-Amino-pyrimidin-4-yl)-1-(2-fluoro-ethyl)-1H-pyrazol-3-yl]-2-fluoro-phenyl}-2,5-difluoro-benzenesulfonamide] | < 5.00 | 7.77 | > 7.80 | 
10 | CC(C)n1cc(-c2ccnc(N)n2)c(-c2cccc(NS(=O)(=O)c3cc(F)ccc3F)c2F)n1 [Compound 10, N-{3-[4-(2-Amino-pyrimidin-4-yl)-1-isopropyl-1H-pyrazol-3-yl]-2-fluoro-phenyl}-2,5-difluoro-benzenesulfonamide] | < 5.00 | 8.52 | > 7.80 | 
11 | CC(C)C(=O)Nc1cc(-c2cn(C3CCOCC3)nc2-c2cccc(NS(=O)(=O)c3cc(F)ccc3F)c2F)ccn1 [Compound 30, N-{4-[3-(3-{[(2,5-difluorophenyl)sulfonyl]amino}-2-fluorophenyl)-1-(tetrahydro-2H-pyran-4-yl)-1H-pyrazol-4-yl]pyridin-2-yl}-2-methylpropanamide] | < 5.00 | > 7.80 | > 7.80 | 
12 | CC(=O)Nc1cc(-c2cn(C3CCN(C)CC3)nc2-c2cccc(NS(=O)(=O)c3cc(F)ccc3F)c2F)ccn1 [Compound 31, N-{4-[3-(3-{[(2,5-difluorophenyl)sulfonyl]amino}-2-fluorophenyl)-1-(1-methylpiperidin-4-yl)-1H-pyrazol-4-yl]pyridin-2-yl}acetamide] | < 5.00 | > 7.80 | > 7.80 | 
13 | CN1CCC(n2cc(-c3ccncc3)c(-c3cccc(NS(=O)(=O)c4cc(F)ccc4F)c3F)n2)CC1 [Compound 5, 2,5-Difluoro-N-{2-fluoro-3-[1-(1-methyl-piperidin-4-yl)-4-pyridin-4-yl-1H-pyrazol-3-yl]-phenyl}-benzenesulfonamide] | < 5.00 | 8.10 | > 7.80 | 
14 | Nc1cc(-c2cn(CCF)nc2-c2cccc(NS(=O)(=O)c3cc(F)ccc3F)c2F)ccn1 [Compound 13, N-{3-[4-(2-Amino-pyridin-4-yl)-1-(2-fluoro-ethyl)-1H-pyrazol-3-yl]-2-fluoro-phenyl}-2,5-difluoro-benzenesulfonamide] | < 5.00 | > 7.80 | > 7.80 | 
15 | O=S(=O)(Nc1cccc(-c2nn(C3CCN(C4CC4)CC3)cc2-c2ccncc2)c1F)c1cc(F)ccc1F [Compound 2, N-{3-[1-(1-Cyclopropyl-piperidin-4-yl)-4-pyridin-4-yl-1H-pyrazol-3-yl]-2-fluoro-phenyl}-2,5-difluoro-benzenesulfonamide] | < 5.00 | 7.92 | > 7.80 | 
